In the supplement of paper PMC11208160:

Assay: recombinant UMI read abundance after kanamycin selection (control-corrected) (log10(CPM+1)); higher = more efficient recombination; extreme values may be limits of the assay; sequences stand for … in AGTGCAGAGAAAATCGGCCAGTTTTCTCTGCCTGCAGTCCGCATGCCGTGGGACCCCTTGGGTTCTAACCTGTTGCCTAGATTTATGCAGCGGACTGCCTTTCTCCCAAAGTGATAAACCGG…AGGTTGGTTTCACT; site = the 11-nt donor
Summary of the method: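 For the IS621 bridge recombinase, a pooled Escherichia coli screen tested donor and donor-binding-loop pairs. Cells received the pair library together with a target plasmid encoding a fixed target and T7-inducible recombinase, then went onto IPTG (0.07 mM) plus kanamycin or unselected plates in duplicate. After PCR across the donor–target junction and sequencing, recombinant UMI counts were normalized to CPM, averaged, and scaled by control-derived factors. Each value is given as log10(CPM+1).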
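Further: IS621 bridge recombinase in Escherichia coli cells against a fixed T5 target plasmid.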

Sequence	recombinant UMI read abundance (log10)
CGTTCGTCATGGACCGGTTTTCCCGGTAATCCGTATTTGCT (site CGTTCGTCTAG)	1.95
CGTTGAACATGGACCGGTTTTCCCGGTAATCCGTATTTGTT (site CGTAGAACTAA)	0.00276
CGTTGAACATGGACCGGTTTTCCCGGTAATCCGTATTTGTT (site CGTCGAACTAA)	0.0175
CGTTGAACATGGACCGGTTTTCCCGGTAATCCGTATTTGTT (site CGTGGAACTAA)	0.0247
CGTTGAACATGGACCGGTTTTCCCGGTAATCCGTATTTGTT (site CGTTGAACTAA)	0.623
CGTTGTGCATGGACCGGTTTTCCCGGTAATCCGTATTTGAG (site CGTTGTGCTCT)	1.77
CGTTTGGCATGGACCGGTTTTCCCGGTAATCCGTATTTGCC (site CGTTTGGCTAG)	0
CGTTTGGCATGGACCGGTTTTCCCGGTAATCCGTATTTGCC (site CGTTTGGCTCG)	0.0176
CGTTTGGCATGGACCGGTTTTCCCGGTAATCCGTATTTGCC (site CGTTTGGCTGG)	0
CGTTTGGCATGGACCGGTTTTCCCGGTAATCCGTATTTGCC (site CGTTTGGCTTG)	0
CTAATAGCATGGACCGGTTTTCCCGGTAATCCGTATTTGAT (site CTAATAGCTAT)	2.21
CTAATATCATGGACCGGTTTTCCCGGTAATCCGTATTTGTC (site CTAATATCTGA)	2.49
CTAATATCATGGACCGGTTTTCCCGGTAATCCGTATTTGTC (site CTAGTATCTGT)	1.1
CTAATCTCATGGACCGGTTTTCCCGGTAATCCGTATTTGAC (site CTAATCTCTGT)	2.44
CTAATCTCATGGACCGGTTTTCCCGGTAATCCGTATTTGAC (site CTAGTATCTGT)	0
CTAATTACATGGACCGGTTTTCCCGGTAATCCGTATTTGCA (site CTAATTACTTG)	2.07
CTACAAACATGGACCGGTTTTCCCGGTAATCCGTATTTGGA (site CTACAAACTTC)	1.28
CTACAAACATGGACCGGTTTTCCCGGTAATCCGTATTTGGA (site CTACCAACTTC)	0.0174
CTACAAACATGGACCGGTTTTCCCGGTAATCCGTATTTGGA (site CTACGAACTTC)	0.0102
CTACAAACATGGACCGGTTTTCCCGGTAATCCGTATTTGGA (site CTACTAACTTC)	0.313
CTACCATCATGGACCGGTTTTCCCGGTAATCCGTATTTGGT (site CTACCATCTAC)	0.00462
CTACGAACATGGACCGGTTTTCCCGGTAATCCGTATTTGGA (site CTACAAACTTC)	1.46
CTACGAACATGGACCGGTTTTCCCGGTAATCCGTATTTGGA (site CTACCAACTTC)	0.0142
CTACGAACATGGACCGGTTTTCCCGGTAATCCGTATTTGGA (site CTACGAACTTC)	1.91
CTACGAACATGGACCGGTTTTCCCGGTAATCCGTATTTGGA (site CTACTAACTTC)	0.113

Sequence	recombinant UMI read abundance (log10)
CTACTAACATGGACCGGTTTTCCCGGTAATCCGTATTTGGC (site CTACTAACTAC)	0.561
CTACTAACATGGACCGGTTTTCCCGGTAATCCGTATTTGGC (site CTACTAACTCC)	0.31
CTACTAACATGGACCGGTTTTCCCGGTAATCCGTATTTGGC (site CTACTAACTGC)	2.51
CTACTAACATGGACCGGTTTTCCCGGTAATCCGTATTTGGC (site CTACTAACTTC)	1.31
CTACTAACATGGACCGGTTTTCCCGGTAATCCGTATTTGGG (site CTACTAACTAC)	0.0214
CTACTAACATGGACCGGTTTTCCCGGTAATCCGTATTTGGG (site CTACTAACTCC)	0.54
CTACTAACATGGACCGGTTTTCCCGGTAATCCGTATTTGGG (site CTACTAACTGC)	0.0111
CTACTAACATGGACCGGTTTTCCCGGTAATCCGTATTTGGG (site CTACTAACTTC)	0.0179
CTACTATCATGGACCGGTTTTCCCGGTAATCCGTATTTGCC (site CTACTATCTGG)	2.95
CTACTATCATGGACCGGTTTTCCCGGTAATCCGTATTTGCC (site CTAGTATCTGT)	0
CTACTATCATGGACCGGTTTTCCCGGTAATCCGTATTTGGA (site CTACTAACTTC)	0.127
CTACTATCATGGACCGGTTTTCCCGGTAATCCGTATTTGGA (site CTACTACCTTC)	0.00618
CTACTATCATGGACCGGTTTTCCCGGTAATCCGTATTTGGA (site CTACTAGCTTC)	0.0148
CTACTATCATGGACCGGTTTTCCCGGTAATCCGTATTTGGA (site CTACTATCTTC)	2.71
CTAGAATCATGGACCGGTTTTCCCGGTAATCCGTATTTGTC (site CTAGAATCTGA)	2.71
CTAGAATCATGGACCGGTTTTCCCGGTAATCCGTATTTGTC (site CTAGTATCTGT)	0.307
CTAGACTCATGGACCGGTTTTCCCGGTAATCCGTATTTGAC (site CTAGACTCTGT)	3.29
CTAGACTCATGGACCGGTTTTCCCGGTAATCCGTATTTGAC (site CTAGTATCTGT)	0
CTAGACTCATGGACCGGTTTTCCCGGTAATCCGTATTTGCT (site CTAGACTCTAG)	3.32
CTAGAGACATGGACCGGTTTTCCCGGTAATCCGTATTTGTC (site CTAGAGACTGA)	2.28
CTAGCATCATGGACCGGTTTTCCCGGTAATCCGTATTTGAC (site CTAGAATCTGT)	0.337
CTAGCATCATGGACCGGTTTTCCCGGTAATCCGTATTTGAC (site CTAGCATCTGT)	3.04
CTAGCATCATGGACCGGTTTTCCCGGTAATCCGTATTTGAC (site CTAGGATCTGT)	0.773
CTAGCATCATGGACCGGTTTTCCCGGTAATCCGTATTTGAC (site CTAGTATCTGT)	2.13
CTAGCGACATGGACCGGTTTTCCCGGTAATCCGTATTTGCC (site CTAGCGACTGG)	3.09

Sequence	recombinant UMI read abundance (log10)
CTAGCTTCATGGACCGGTTTTCCCGGTAATCCGTATTTGAC (site CTAGCTTCTGT)	2.18
CTAGCTTCATGGACCGGTTTTCCCGGTAATCCGTATTTGAC (site CTAGTATCTGT)	0
CTAGGACCATGGACCGGTTTTCCCGGTAATCCGTATTTGAC (site CTAGGACCTGT)	0
CTAGGACCATGGACCGGTTTTCCCGGTAATCCGTATTTGAC (site CTAGTATCTGT)	0.00955
CTAGGATCATGGACCGGTTTTCCCGGTAATCCGTATTTGAT (site CTAGGATCTAT)	1.95
CTAGGATCATGGACCGGTTTTCCCGGTAATCCGTATTTGAT (site CTAGTATCTGT)	0.00727
CTAGGATCATGGACCGGTTTTCCCGGTAATCCGTATTTGGC (site CTAGGATCTGC)	2.55
CTAGGATCATGGACCGGTTTTCCCGGTAATCCGTATTTGGC (site CTAGTATCTGT)	0.606
CTAGGGTCATGGACCGGTTTTCCCGGTAATCCGTATTTGAC (site CTAGGGTCTGT)	1.41
CTAGGGTCATGGACCGGTTTTCCCGGTAATCCGTATTTGAC (site CTAGTATCTGT)	1.43
CTAGGTTCATGGACCGGTTTTCCCGGTAATCCGTATTTGCG (site CTAGGTTCTCG)	2.47
CTAGTAGCATGGACCGGTTTTCCCGGTAATCCGTATTTGAA (site CTAGTAGCTTT)	2.15
CTAGTAGCATGGACCGGTTTTCCCGGTAATCCGTATTTGAA (site CTAGTATCTGT)	0
CTAGTATCATGGACCGGTTTTCCCGGTAATCCGTATTTGAC (site ACAGTATCTGT)	0.654
CTAGTATCATGGACCGGTTTTCCCGGTAATCCGTATTTGAC (site ATACTATCTGT)	0.00668
CTAGTATCATGGACCGGTTTTCCCGGTAATCCGTATTTGAC (site ATAGCATCTGT)	0
CTAGTATCATGGACCGGTTTTCCCGGTAATCCGTATTTGAC (site ATAGTAGCTGT)	0.00849
CTAGTATCATGGACCGGTTTTCCCGGTAATCCGTATTTGAC (site ATAGTATCTGG)	0.298
CTAGTATCATGGACCGGTTTTCCCGGTAATCCGTATTTGAC (site ATAGTATCTGT)	0.432
CTAGTATCATGGACCGGTTTTCCCGGTAATCCGTATTTGAC (site ATAGTATCTTT)	0.00657
CTAGTATCATGGACCGGTTTTCCCGGTAATCCGTATTTGAC (site ATAGTTTCTGT)	0
CTAGTATCATGGACCGGTTTTCCCGGTAATCCGTATTTGAC (site ATGGTATCTGT)	0.837
CTAGTATCATGGACCGGTTTTCCCGGTAATCCGTATTTGAC (site CAAATATCTGT)	0
CTAGTATCATGGACCGGTTTTCCCGGTAATCCGTATTTGAC (site CAAGAATCTGT)	0
CTAGTATCATGGACCGGTTTTCCCGGTAATCCGTATTTGAC (site CAAGTAACTGT)	0.0563
